# Literature values as cited in patent US7354906B2, “Composition of anti-HIV drugs and anti-cortisol compounds and method for decreasing the side effects of anti-HIV drugs in a human” (Samaritan Pharmaceuticals, Inc., priority 1999, dated 2008).
# Legend:
# [1] = hydrochloride salt
# [2] = human, 20 mg/kg/day, four weeks, no increase in caloric intake
# [3] = 50 mg per day for 6 months, age advanced humans
# [4] = AZT recipients
smiles,measurement,setting,value
"CCN(CC)CCOC(=O)c1ccc(N)cc1.Cl [Procaine hydrochloride, 2-diethylaminoethyl p-aminobenzoate hydrochloride]",solubility,[1],"soluble in water and alcohol, but much less soluble in organic solvents"
"CC(C)Oc1ccc2c(=O)c(-c3ccccc3)coc2c1 [Ipriflavone, 7-isoproxy-isoflavone]",increase in body weight,[2],about 5 pounds
"C[C@]12CC[C@H](O)CC1=CC[C@@H]1[C@@H]2CC[C@]2(C)C(=O)CC[C@@H]12 [DHEA, Dehydroepiandrosterone]",bioavailable IGF-1,[3],induced an increase
same,safety of DHEA dosages,dosages as high as 1.6 gm/day,safe and without side effects
same,mean serum total cholesterol levels,"men, 1600 mg/day for 28 days",fall
same,mean percent body fat decrease,"men, 1600 mg/day for 28 days, no change in weight",31%
"Cc1cn([C@H]2C[C@H](N=[N+]=[N-])[C@@H](CO)O2)c(=O)[nH]c1=O [AZT, 3′-azido-3′-deoxythymidine]",recipients who develop anemia,[4],24%
